In patent publication US10208033B2, “β-carboline, dihydro-β-carboline and tetrahydro-β-carboline alkaloid derivatives and preparation methods same and use in aspects of preventing and treating plant viruses, fungicides and insecticides” (NANKAI UNIVERSITY, priority 2013, dated 2019):

What was measured:
[1] = system: tobacco mosaic virus (TMV); test: Anti-TMV in vitro effect (half-leaf soaking); format: cell-based, tobacco mosaic virus (host Nicotiana tabacum L.cv.Xanthi NN)
[2] = system: tobacco mosaic virus (TMV); test: Anti-TMV in vivo inactivation; parameters: species or system tobacco mosaic virus (host Nicotiana tabacum L.cv.Xanthi NN)
[3] = system: tobacco mosaic virus (TMV); test: Anti-TMV in vivo therapeutic effect; parameters: species or system tobacco mosaic virus (host Nicotiana tabacum L.cv.Xanthi NN)
[4] = system: tobacco mosaic virus (TMV); test: Anti-TMV in vivo protective effect; parameters: species or system tobacco mosaic virus (host Nicotiana tabacum L.cv.Xanthi NN)
[5] = system: cucumber fusarium wilt; test: Fungicidal (bactericidal) activity in vitro, PDA colony diameter; format: cell-based; conditions: 50 mg/kg
[6] = system: Cercospora arachidicola; test: as above; format: cell-based; conditions: 50 mg/kg
[7] = system: Macrophoma kawatsukai; test: as above; format: cell-based; conditions: 50 mg/kg
[8] = system: Alternaria solani; test: as above; format: cell-based; conditions: 50 mg/kg
[9] = system: Fusarium graminearumt; test: microbe, parasite or virus in culture; format: cell-based; conditions: 50 mg/kg
[10] = system: potato late blight; test: microbe, parasite or virus in culture; format: cell-based
[11] = system: Sclerotinia scleotiorum; test: Fungicidal (bactericidal) activity in vitro, PDA colony diameter; format: cell-based; conditions: 50 mg/kg
[12] = system: Botrytis cinerea; test: as above; format: cell-based; conditions: 50 mg/kg
[13] = system: Rhizoctonia solani; test: as above; format: cell-based; conditions: 50 mg/kg
[14] = system: Phytophthora capsici; test: as above; format: cell-based; conditions: 50 mg/kg
[15] = system: Fusarium fujikuroi; test: as above; format: cell-based; conditions: 50 mg/kg
[16] = system: Rhizoctonia cereali; test: as above; format: cell-based; conditions: 50 mg/kg
[17] = system: Bipolaria maydis; test: organism not typed; format: cell-based; conditions: 50 mg/kg
[18] = system: Colletotrichum orbiculare; test: Fungicidal (bactericidal) activity in vitro, PDA colony diameter; format: cell-based; conditions: 50 mg/kg
[19] = system: armyworms; format: in vivo; conditions: concentration 600 mg/kg
[20] = system: cotton bollworms; test: whole plant or invertebrate; conditions: concentration 600 mg/kg
Description: Experimental method of cotton bollworms: feed and drug mixing method: measure 3 mL of prepared solution and add it to about 27 g of newly prepared feed, thereby obtaining needed concentration through dilution by 10 times.

[21] = system: mosquito larvae; test: whole plant or invertebrate; conditions: concentration 10 mg/kg, 24 h
Outline: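 Compound dissolved in acetone (or other solvent) to a 1000 ppm stock and diluted in water to 5 ppm. Ten Culex pipiens pallens larvae at the start of the fourth instar, laboratory-reared, added per beaker; solvent-only aqueous control.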

[22] = system: tobacco mosaic virus (TMV); test: Anti-TMV activity, overall statements on Table 1; format: in vivo, tobacco mosaic virus (host Nicotiana tabacum L.cv.Xanthi NN); conditions: 100 μg/mL versus ningnanmycin at 100 μg/mL
[23] = system: corn borers; conditions: concentration 600 mg/kg

| SMILES | Relative inhibition rate (%) In vitro activity ([1]; treatment dose 100 μg/mL) [%] | Relative inhibition rate (%) In vitro activity ([1]; treatment dose 500 μg/mL) [%] | Relative inhibition rate (%) In vivo inactivation ([2]; treatment dose 100 μg/mL) [%] | Relative inhibition rate (%) In vivo inactivation ([2]; treatment dose 500 μg/mL) [%] | Relative inhibition rate (%) In vivo therapy ([3]; treatment dose 100 μg/mL) [%] | Relative inhibition rate (%) In vivo therapy ([3]; treatment dose 500 μg/mL) [%] | Relative inhibition rate (%) In vivo protection ([4]; treatment dose 100 μg/mL) [%] | Relative inhibition rate (%) In vivo protection ([4]; treatment dose 500 μg/mL) [%] | Bactericidal activity (%) Cucumber fusarium wilt [5] [%] | Bactericidal activity (%) Cercospora arachidicola [6] [%] | Bactericidal activity (%) Macrophoma kawatsukai [7] [%] | Bactericidal activity (%) Alternaria solani [8] [%] | Bactericidal activity (%) Fusarium graminearumt [9] [%] | Bactericidal activity (%) potato late blight [10] [%] | Bactericidal activity (%) Sclerotinia scleotiorum [11] [%] | Bactericidal activity (%) Botrytis cinerea [12] [%] | Bactericidal activity (%) Rhizoctonia solani [13] [%] | Bactericidal activity (%) Phytophthora capsici [14] [%] | Bactericidal activity (%) Fusarium fujikuroi [15] [%] | Bactericidal activity (%) Rhizoctonia cereali [16] [%] | other results |
| --- | --- | --- | --- | --- | --- | --- | --- | --- | --- | --- | --- | --- | --- | --- | --- | --- | --- | --- | --- | --- | --- |
| C[C@@H]1N[C@H](C(=O)NN=Cc2ccc3c(c2)OCO3)Cc2c1[nH]c1ccccc21 [Ic-12] | 29.1 | 72.6 | 33.6 | 74.5 | 30.2 | 69 | 35.8 | 68.1 | 31.8 | 63.6 | 63.6 | 52.4 | 53.8 | 39.1 | 44.2 | 88.9 | 50.0 | 81.8 | 58.8 | 86.5 | Bactericidal activity (%) Bipolaria maydis [17]: 56.0%; Bactericidal activity (%) Colletotrichum orbiculare [18]: 48.0%; Armyworm Mortality (%) [19]: 15%; Cotton bollworm Mortality (%) [20]: 30%; Mosquito larvae Mortality (%) [21]: 15%; anti-TMV activity compared with ningnanmycin [22]: equivalent to the activity of commercial variety ningnanmycin; Corn borer Mortality (%) [23]: 15% |
| C[C@@H]1N[C@H](C(=O)NN=Cc2cccs2)Cc2c1[nH]c1ccccc21 [Ic-20, (1S, 3S)—N′-(thiophene-2-methylene)-1-methyl-2,3,4,9-tetrahydropyridino [3,4-b] indol-3-formylhydrazine] | 23 | 58.5 | 29.6 | 59.1 | 25.1 | 52.3 | 31.8 | 61.3 | 26.9 | 47.1 | 55.6 | 45.0 | 62.1 | 36.0 | 88.2 | 72.7 | 46.1 | 68.4 | 28.6 | 72.5 | Bactericidal activity (%) Bipolaria maydis [17]: 44.0%; Bactericidal activity (%) Colletotrichum orbiculare [18]: 44.4%; Armyworm Mortality (%) [19]: 35%; Cotton bollworm Mortality (%) [20]: 20%; Mosquito larvae Mortality (%) [21]: 75%; anti-TMV activity compared with ningnanmycin [22]: equivalent to the activity of commercial variety ningnanmycin; Corn borer Mortality (%) [23]: 30% |
